Assay results from patent US20210161877A1, “GASTROPROTECTED, HYDROPHOBIC FORMULATION OF AT LEAST ONE ACTIVE PRINCIPLE AND METHOD FOR OBTAINING SAME” (priority 2018, published 2021).

Assays:
[1] = Stability of the particles in 0.1 N hydrochloric acid solution, HPLC assay; type: physicochemical; conditions: 0.1 N HCl medium at 25° C., 500 ml, 20 mg of BZ, 120 minutes of incubation; percentage of the initial dose
Protocol: Measurement of the stability of the particles in 0.1 N hydrochloric acid solution, via an HPLC assay method: • Column (ProntoSlL, Bischoff, Germany): C18, 5 μm, 120 Å, 4.6×150 mm, • Mobile phase: methanol, 65%/10 mM Na2HPO4, 35%, • Flow rate: 1.00 mL/min, • Temperature: 20° C. (thermostat), • Detection: UV (λ=310 nm) • Injection volume: 20 μL.
The stability is measured in 0.1 N HCl medium at 25° C., for a volume of 500 ml and 20 mg of BZ. The results collated in FIG. 2 are expressed as a percentage of the initial dose.

[2] = Test of gastroprotection and preliminary bioavailability on animals (oral administration); conditions: rat, in vivo, fasted male Sprague-Dawley rats, 40 mg/kg of BZ
Protocol: Test of gastroprotection and preliminary bioavailability on animals. In this test, the protective capacity of the BZ-AT formulation according to the invention as described in this example and of an unprotected form of BZ are compared.
Each formulation is administered orally to male Sprague-Dawley rats weighing between 175-250 g. Tests are performed with pure BZ and the BZ-AT form taken up at 10 mg/ml in the following aqueous solution:
The volume that may be administered is adjusted as a function of each animal to enable a dose of 4 mL/kg to be achieved, i.e. 40 mg/kg of BZ. The administration is performed orally on the fasted animal.

COCCCOc1ccnc(C[S+]([O-])c2nc3ccccc3[nH]2)c1C (stereo not shown) [BZ, 2-([4-(3-methoxypropoxy)-3-methylpyridin-2-yl]methylsulfinyl)-1H-benzo[d]imidazole]
degradation [1]: 100%
AUC [2]: < 5 ng·h/mL
Cmax [2]: 2.54 ng/mL
Tmax [2]: 48 min
